Data published in PubChem BioAssay AID2060329 (Molecular Pharmacology Branch, DTP, NCI, 2025).
Where “and” joins values, the source holds several entries; their conditions need not be identical. Identical values can stand only once.

System: MCF7 multi-cell spheroids with HUVEC/MSC, viability
Assay: Anticancer human tumor MCF7 cell line growth inhibition [IpAb];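 note: spheroids exposed to agents for seven days before readout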
Details: for viability, T/C: stronger effect = lower value
Description: Combinatorial screen of targeted agents with ipatasertib and abemaciclib in multi-cell type tumor spheroids
A high-throughput screen of multi-cell type tumor spheroids was designed to identify active combinations of targeted small molecules and ipatasertib or abemaciclib. Complex spheroids include a stromal component modeled by human endothelial cells (HUVEC) and fibroblasts modeled by human mesenchymal stem cells (MSCs). The concentration ranges selected for each drug and investigational agent were based upon clinically achievable concentrations if the clinical Cmax of the agent was known.
Compounds. The drugs and investigational agents: ipatasertib (NSC767898), abemaciclib(NSC768073), selumetinib (NSC741078), trametinib (758246), adavosertib (NSC754352), everolimus (NSC733504), sapanisertib (NSC764658), vemurafenib (NSC761431), venetoclax (NSC766270), copanlisib (NSC809693), apelisib (NSC765974), palbociblib (NSC758247), vemurafenib (NSC761431), dabrafenib (NSC764134), ravoxertinib (NSC781343), BMS-387032 (NSC767048), sotorasib (NSC818433), talazoparib (NSC767125) and afursertib (NSC778305), were obtained from the National Cancer Institute (NCI) Developmental Therapeutics Program Chemical Repository. The FDA-approved anticancer drug set is available from the NCI Developmental Therapeutics Program. […] The stock solutions were prepared in dimethyl sulfoxide (DMSO, Sigma-Aldrich, St. Louis, MO, cat. D2650) at 800-fold the tested concentration and stored at -70 degrees C prior to their use. All drugs and investigational agents were tested over a range starting from a high concentration at or near the clinical Cmax and decreasing in half-log increments. If the clinical Cmax for an agent had not been determined, the highest concentration tested was 10 microM.
NCI60 Cell Culture. NCI60 cell lines were obtained from the NCI Developmental Therapeutics Program Tumor Repository. For each lot of cells, the Repository performed Applied Biosystems AmpFLSTR Identifiler testing with PCR amplification to confirm consistency with the published Identifier STR profile for each cell line. Cells were kept in continuous culture for no more than 20 passages. The optimal seeding densities for each of the cell lines at each time point assessed were determined prior to performing the concentration response studies. Briefly, the NCI60 human tumor lines were grown as monolayers in RPMI 1640 medium supplemented with 10% FBS and 2 mmol/L L-glutamine.
An additional 9 lines were from the NCI60 cell line panel including MDA-MB-231 breast carcinoma, MDA-MB-468 breast carcinoma, MCF7 breast carcinoma, Hs578T breast carcinoma, MALME-3M melanoma, SK-MEL-2 melanoma, SK-OV-3 ovarian carcinoma, DU-145 prostate carcinoma, PC-3 prostate carcinoma, all cell lines along with major genetic alterations are listed on Table 2. Pooled donor human umbilical vein endothelial cells (HUVEC, Lonza, cat. CC-2519) and human mesenchymal stem cells (hMSC, Lonza, cat. PT-2501) were purchased from Lonza (Walkersville, MD).
PDMR cell lines were grown in complete medium (DC medium): Dulbecco's modified Eagle's medium (DMEM)/F12 supplemented with 5% fetal bovine serum (FBS), 2 mM L-glutamine, 100 U/mL penicillin and 100 µg/ml streptomycin, 0.4 µg/ml hydrocortisone, 10 ng/ml epidermal growth factor (EGF) recombinant human protein, 24 µg/mL adenine, and 0.1 mg/mL primocin. During culture from frozen stock vials, PDMR cells were cultured in the same medium containing 10 µM Y-27632 (see Table 3). The PDCs were cultured in complete DMEM/F12 media without 10 microM Y-27632 dihydrochloride for at least two passages prior to the screen. The pooled donor HUVEC and hMSC were cultured in endothelial cell growth medium 2 (PromoCell, Heidelberg, Germany, cat. C-22011) and mesenchymal stem cell growth medium 2 (PromoCell, cat. C-28009), respectively. For all experiments, HUVEC and hMSC were used at passages </=5.
[…]

Cc1nc(NC(=O)N2CCCC2C(N)=O)sc1-c1ccnc(C(C)(C)C(F)(F)F)c1 (stereo not given) was tested, and the viability, T/C (compound 0.0316 µM) was 74.8% and 93.7%, the viability, T/C (compound 0.1 µM) was 64.7% and 93.4% and the viability, T/C (compound 0.316 µM) was 65.9% and 78.8%. The viability, T/C (compound 1 µM) was 47.6% and 70.3%, the viability, T/C (compound 3.16 µM) was 48.1% and 63.4% and the viability, T/C (compound 10 µM) was 36.2% and 43%. The IC50 (curve of compound) was 1540 nM and 6660 nM.

Cn1cnc2c(F)c(Nc3ccc(Br)cc3Cl)c(C(=O)NOCCO)cc21 was tested, and the viability, T/C (compound 0.00949 µM) was 97.5% and 94.6%, the viability, T/C (compound 0.03 µM) was 102% and 98% and the viability, T/C (compound 0.0949 µM) was 105% and 97.7%. For the same molecule, the viability, T/C (compound 0.3 µM) was 103% and 116%, the viability, T/C (compound 0.949 µM) was 107% and 102% and the viability, T/C (compound 3 µM) was 111% and 109%. The IC50 (curve of compound) was > 3000 nM.

For Cn1ncc(Cl)c1-c1cc(C(=O)NC(CN)Cc2cccc(F)c2)sc1Cl (stereo not given), the viability, T/C (compound 0.0316 µM) was 89.2% and 85.5%, the viability, T/C (compound 0.1 µM) was 88.8% and 84.4% and the viability, T/C (compound 0.316 µM) was 79.7% and 72.8%. The viability, T/C (compound 1 µM) was 57.6% and 50.1%, the viability, T/C (compound 3.16 µM) was 8.42% and 19.3% and the viability, T/C (compound 10 µM) was 0.22% and 0.25%. The IC50 (curve of compound) was 1170 nM and 998 nM.

For Cn1nccc1Nc1nccc(-c2ccn(C(CO)c3ccc(Cl)c(F)c3)c(=O)c2)n1 (stereo not given), the viability, T/C (compound 0.0316 µM) was 96.3% and 104%, the viability, T/C (compound 0.1 µM) was 96.2% and 111% and the viability, T/C (compound 0.316 µM) was 116% and 119%. The viability, T/C (compound 1 µM) was 129% and 118%, the viability, T/C (compound 3.16 µM) was 128% and 143% and the viability, T/C (compound 10 µM) was 88.5% and 102%. For the same molecule, the IC50 (curve of compound) was > 10000 nM.

In the case of Cn1ncnc1[C@H]1c2n[nH]c(=O)c3cc(F)cc(c23)N[C@@H]1c1ccc(F)cc1, the viability, T/C (compound 0.000316 µM) is reported as 139% and 91.4%, the viability, T/C (compound 0.001 µM) is reported as 97.3% and 97.9% and the viability, T/C (compound 0.00316 µM) is reported as 92.7% and 90%. For the same molecule, the viability, T/C (compound 0.01 µM) was 90.3% and 100%, the viability, T/C (compound 0.0316 µM) was 94% and 102% and the viability, T/C (compound 0.1 µM) was 85.9% and 102%. The IC50 (curve of compound) was > 100 nM.

In the case of Cn1cnc2c(F)c(Nc3ccc(Br)cc3Cl)c(C(=O)NOCCO)cc21 + CC(C)NCC(C(=O)N1CCN(c2ncnc3c2C(C)CC3O)CC1)c1ccc(Cl)cc1, the IC50 (curve of first compound, second compound 0.1 µM) is reported as > 3000 nM, the IC50 (curve of first compound, second compound 0.316 µM) is reported as > 3000 nM and the IC50 (curve of first compound, second compound 1 µM) is reported as 1410 nM. For the same molecule, the IC50 (curve of first compound, second compound 3.16 µM) was < 9.49 nM, the IC50 (curve of first compound, second compound 10 µM) was < 9.49 nM and the viability, T/C (second compound 0.1 µM, first compound 0.00949 µM) was 87.8%. For the same molecule, the viability, T/C (second compound 0.1 µM, first compound 0.03 µM) was 89.6%, the viability, T/C (second compound 0.1 µM, first compound 0.0949 µM) was 92.5% and the viability, T/C (second compound 0.1 µM, first compound 0.3 µM) was 86.2%. For the same molecule, the viability, T/C (second compound 0.1 µM, first compound 0.949 µM) was 95%, the viability, T/C (second compound 0.1 µM, first compound 3 µM) was 82.5% and the viability, T/C (second compound 0.316 µM, first compound 0.00949 µM) was 80.8%. It also gave a viability, T/C (second compound 0.316 µM, first compound 0.03 µM) of 86.2%, a viability, T/C (second compound 0.316 µM, first compound 0.0949 µM) of 89.8% and a viability, T/C (second compound 0.316 µM, first compound 0.3 µM) of 77.9%. It also gave a viability, T/C (second compound 0.316 µM, first compound 0.949 µM) of 82.5%, a viability, T/C (second compound 0.316 µM, first compound 3 µM) of 67% and a viability, T/C (second compound 1 µM, first compound 0.00949 µM) of 58.7%. The viability, T/C (second compound 1 µM, first compound 0.03 µM) was 73.4%, the viability, T/C (second compound 1 µM, first compound 0.0949 µM) was 67.4% and the viability, T/C (second compound 1 µM, first compound 0.3 µM) was 50.9%. The viability, T/C (second compound 1 µM, first compound 0.949 µM) was 54.4%, the viability, T/C (second compound 1 µM, first compound 3 µM) was 44.7% and the viability, T/C (second compound 3.16 µM, first compound 0.00949 µM) was 43%. It also gave a viability, T/C (second compound 3.16 µM, first compound 0.03 µM) of 48.5%, a viability, T/C (second compound 3.16 µM, first compound 0.0949 µM) of 43.5% and a viability, T/C (second compound 3.16 µM, first compound 0.3 µM) of 38.4%. The viability, T/C (second compound 3.16 µM, first compound 0.949 µM) was 40.8%, the viability, T/C (second compound 3.16 µM, first compound 3 µM) was 31.3% and the viability, T/C (second compound 10 µM, first compound 0.00949 µM) was 30.7%. It also gave a viability, T/C (second compound 10 µM, first compound 0.03 µM) of 41.4%, a viability, T/C (second compound 10 µM, first compound 0.0949 µM) of 37.5% and a viability, T/C (second compound 10 µM, first compound 0.3 µM) of 34.8%. The viability, T/C (second compound 10 µM, first compound 0.949 µM) was 35.5% and the viability, T/C (second compound 10 µM, first compound 3 µM) was 27.5%.
